We go through four compounds from patent EP1344776A1, “5- 2-hydroxy-3-[1-(3-trifluoromethylphenyl)-cyclopropyl]-propionylamino -phtalide and 6- 2-hydroxy-3-[1-(3-trifluoromethylphenyl)-cyclopropyl]-propionylamino -4-methyl-2,3-benzoxazin-1-one derivatives with progesterone receptor modulating activity for use in fertility control, hormone replacement …” (Schering Aktiengesellschaft, priority 2002, dated 2003).

For one experiment, the system named is hPR-B. Briefly: PR-B transcription assay (MTV-LUC reporter, SK-N-MC cells). The format is cell-based, human. The note with it: 10^-7 mol/l test compound relative to R5020 10^-7 mol/l, 24 hours, 0.1 µM. The protocol: (§1) The method for screening for PR isoform-specific progestins according to the present invention is carried out with first and second SK-N-MC cells stably transfected with a plasmid expressing the hPR-A (first cells) or the hPR-B (second cells) and the LUC reporter gene linked to the hormonally responsive MTV promoter.
The cells are cultured in Minimum Essential Medium with Earl's Salts (S-MEM, without L-glutamine; Gibco BRL, no. 21090-022), supplemented with 10 % fetal calf serum (FCS), penicillin 100U/streptomycin 100 µg/ml (Biochrom, no. A2213), L-glutamine 4 mmol/l (Gibco BRL, no. 25030-024), sodium pyruvate 1 mmol/l (Biochrom, no. L0473) and 1x non-essential amino acids (Biochrom, no. K0293) at a temperature of 37 °C and in an atmosphere of 5 % carbon dioxide.
(§2) For the transcription assay, the cells are seeded onto 96-well dishes (2x 10^4 cells/dish) and cultured in a medium as described above, with the exception that the FCS is replaced by a 3 % charcoal stripped FCS. 48 hours later, cells are contacted with prediluted test compounds. For determination of agonistic activity, cells are cultured in the presence of increasing concentrations (10^-6 to 10^-11 mol/l) of test progestins. As a positive control for reporter gene induction cells are treated with 10^-6 to 10^-11 mol/l R5020 (promegestone). As a negative control for reporter gene induction, cells are cultured in 1 % ethanol.
After incubation with test progestins for 24 hours, the medium is removed and cells are lysed with 20 µl of lysis buffer (Luciferase Assay System E 153A; Promega) and under agitation of the plate for 10 min. After addition of 30 µl of luciferase reagent (Luciferase Assay System E 151A + 152A; Promega) within 30 seconds per plate, the activity of the luciferase reporter gene product is determined in the cell lysates by means of a Microlite ML 3000 microtiter plate luminometer (Dynatech) in cycle mode.
(§3) Evaluation of the response gives the efficacy [%], and evaluation of the EC50 values gives the potency [nM]. Calculation of the agonistic activity is conducted as follows:
(§4) The LUC activity [%] for the measured data points is calculated as follows: relative LUC activity [%] = 100 x((response 10)^-6 (to 10)^-11 mol/l test compound - CO)/(CI - CO) [formula] wherein CI = 100 % stimulation (R5020, 10^-7 mol/l) and CO = 0 % stimulation (ethanol, 1 %).
(§5) Thus, the efficacy [%] is calculated according to: efficacy [%] = 100 x((response 10)^-7 mol/l test compound - CO)/(CI - CO) [formula]
(§6) The potency [nM], i.e. the EC50, is determined graphically.

The test system of the next experiment is hPR-A. The experiment can be described thus: PR-A transcription assay (MTV-LUC reporter, SK-N-MC cells). In kind it is cell-based, human. As to conditions: 10^-7 mol/l test compound relative to R5020 10^-7 mol/l, 24 hours, 0.1 µM. How it is done: as §1, §2, §3, §4, §5, §6
The subject of the next experiment is rat mammary epithelium. Briefly: Bioassay on proliferating/differentiating effects in the rat mammary epithelium (whole mount staining). In kind it is in vivo. As to conditions: terminal end buds. How it is done:
The object of this test is to evaluate the effect of progestins on the development of the mammary gland, in particular on the formation of terminal end buds in the mammary gland in estrogen primed rats.
Premature female rats (Wistar Han, SPF) are ovariectomized at the age of 21 days, 4 to 6 days before treatment start. The animals are treated for 6 days with standard estrogen (estrone, 70 µg/kg) and the test progestin (application volume: 0.1 ml/50g body weight; vehicle: benzylbenzoate/castor oil (1+4 v/v); subcutaneous). Control groups are e.g.: vehicle, estrone without progestin, estradiol together with a known progestin, e.g. R5020 (promegestone). After the 6-day treatment the animals are killed with carbon dioxide.
For the whole mount staining, animals are shaved in the left abdominal inguinal mammary region, which is cut from the body together with the skin. For the histological/immunohistochemical analyses the right abdominal inguinal mammary gland is cut from the body together with the connective tissue adhered thereto and fixed in 3.7 % formalin in PBS (phosphate buffer saline; without Ca^2+/Mg^2+).
The preparations are fixed over night in alcohol-formalin according to the method of Tellyesniczky (see below). Then the mammary gland tissue and subcutis adhered thereto are stripped from the cutis and the preparations are again fixed over night. The further steps are as follows: ethanol 70 %: 1.5 hours; acetone: 3 × 1.5 hours; acetone: over night; isopropanol: 1.5 hours; ethanol 96 %: 2 hours; hematoxylin-iron: 3 hours; VE water: first rinse the preparations and then 2 × 0.5 hours; ethanol 70 %: over night; ethanol 80 %: 1.5 hours; ethanol 96 %: 1.5 hours; isopropanol: 1.5 hours. The preparations are then moved to petri dishes and left in toluene for approximately 1 hour, i.e. until they have stopped to swim up. Then the preparations are treated with cedarwood oil (Merck, no. 1.06965). The incubation times above are minimum times and can be extended. In particular, incubation in ethanol 70 % after fixation can be extended to at least 2.5 weeks.
Preparation of the solutions necessary for the whole mount staining: • a) Alcohol-formalin according to Tellyesniczky: formaldehyde 37%: 81.8 ml, ethanol 70 %: 1636 ml, glacial acetic acid (to be added shortly before use): 81.8 ml (total: 1800 ml). • b) Hematoxylin mother solution: Hematoxylin (Merck, no. 1.15938): 10 g, ethanol 96 %: 100 ml. The solution must stand for 48 hours at 37 °C before use. It can be kept in a dark place for almost unlimited time. • c) Hematoxylin-iron solution for use: hematoxylin mother solution (filtered): 15.2 ml, ethanol 96 %: 1374 ml, FeCl3 x 6 H2O (s. 4): 91.1 ml, 1 mol/l HCl: 220 ml (total: 1700 ml); adjustment to a pH of 1.25 with 2mol/l NaOH. • d) FeCl3 x 6 H2O solution: FeCl3 x 6 H2O (Merck, no. 1.03943): 1.07 g, VE water: 90.2 ml, HCl: 37 %: 0.92 ml (total: 91.1 ml).
By means of a 40-fold magnification, the terminal end buds near the nipple in direction of the tail are counted. The area to be investigated should be about 1.8 mm^2. For well-differentiated preparations this area may be reduced, with at least 250 buds to be counted. After counting, the number of end buds per 1 mm^2 is calculated. […]

The test system of experiment [1] is Pregnant rats (Wistar Han, SPF). Briefly: Pregnancy maintenance test in rat. The format is in vivo. As to conditions: ovariectomized pregnant rats, with estrone. An excerpt: In rats, castration induces termination of pregnancy. Progestins (combined with estrogens) are capable of maintaining pregnancy in castrated animals. However, the degree of pregnancy maintenance in castrated rats is optimal only in a defined dose range. Therefore, higher as well as lower doses generally induce a weaker effect. Accompanying treatment with defined doses of estrone (E1) increases the pregnancy maintaining effect of progestins.
Pregnant rats (Wistar Han, SPF) of 190 to 220 g (5 to 8 animals per dose) are ovariectomized on day 8 of pregnancy, 2 hours after the first substance administration. From day 8 to day 14, rats are daily treated with test progestin in combination with a standard dose of E1. One day later, animals are killed with carbon dioxide. For each animal, the number of living and dead fetuses is determined according to the heartbeat of the embryos. In case of empty uteri, the number of implantation sites is determined by means of staining with a 10 % ammonium sulfide solution.
S.c. (subcutaneous) application: The test progestin is dissolved in benzyl benzoate/castor oil (1+4 v/v), and the daily dose is administered in a volume of 1 ml/kg body weight.
P.o. (peroral) application: The test progestin is suspended in a carrier liquid (85 mg Myrj^R in 100 ml 0.9 % w/v NaCl solution), and the daily dose is administered in a volume of 2 ml/kg body weight.
I.p. (intraperitoneal) application: The test progestin is dissolved in propylene glycol and charged in miniature osmotic pumps (type 2001, 1.0 µl/h, 7 days), which are placed in the abdominal cavity of the rat.
The standard dose of estrone is 0.005 mg/kg body weight s.c. and is dissolved in benzyl benzoate/castor oil ([…]).
It is determined the pregnancy maintenance per animal [%], the pregnancy maintenance per dose (median of single values) and the ED50 (dose, at which pregnancy is maintained in 50 % of the animals; 100 % corresponds to control animals that are not ovariectomized).

The test system of a further experiment is female rats. The experiment can be described thus: Ovulation inhibition test in rat. The format is in vivo. The note with it: rat (Table 1-b); read-out: Ovulation Inhibition (rat) [ED50]. The protocol:
Before the treatment is started, two […] cycles of female rats (weight: 190 to 210 g) were monitored. Only animals having a regular 4 day-cycle are used for the subsequent test. Starting in the metoestrus, the test compound is administered for 4 days (day 1 to 4) and the cycle is controlled thereafter.
For subcutaneous application, the test compounds are dissolved in benzyl benzoate/castor oil (1+9 v/v) and the daily dose is administered in a volume of 1 ml/kg body weight.
For peroral application, the test compounds are suspended in a carrier liquid (85 mg Myrj^R in 100 ml 0.9 % w/v NaCl solution) and the daily dose is administered in a volume of 2 ml/kg body weight.
On day 4, after the application of the test compound, those animals having estrus or metoestrus are ovariectomized under ether anesthesia on one side. Preparations of the tubes are prepared and they are investigated for ova by means of microscope. On day 5 all animals (intact and partly ovariectomized) are killed with carbon dioxide, the tubes are preserved and analyzed in the same way. It is then determined, as a percentage, in how many animals ovulation was inhibited.

`Cc1noc(=O)c2ccc(NC(=O)C(C)(O)CC3(c4cccc(C(F)(F)F)c4)CC3)cc12` (single isomer, unassigned; (+)) [((+)-3), (+)-6-{2-hydroxy-3-[1-(3-trifluoromethylphenyl)-cyclopropyl]-2-methyl-propionylamino}-4-methyl-2,3-benzoxazin-1-one] registered a PR-B agonism efficacy in the experiment on hPR-B of 71%. In the experiment on hPR-A, this compound had a PR-A agonism efficacy of 94%.

With `Cc1noc(=O)c2ccc(NC(=O)C(O)(CC3(c4cccc(C(F)(F)F)c4F)CC3)C(F)(F)F)cc12` (single isomer, unassigned; (+)) [((+)-2), (+)-6-{2-hydroxy-3-[1-(2-fluoro-3-trifluoromethylphenyl)-cyclopropyl]-2-trifluoromethyl-propionylamino}-4-methyl-2,3-benzoxazin-1-one], the PR-B agonism efficacy with hPR-B was determined as 67.5%. Further, the PR-A agonism efficacy with hPR-A was 99.2%.

In the experiment with hPR-B, `O=C1OCc2cc(NC(=O)C(O)(CC3(c4cccc(C(F)(F)F)c4F)CC3)C(F)(F)F)ccc21` (single isomer, unassigned; (+)) [((+)-4), (+)-5-{2-hydroxy-3-[1-(2-fluoro-3-trifluoromethylphenyl)-cyclopropyl]-2-trifluoromethyl-propionylamino}-phthalide] displayed a PR-B agonism efficacy of 82%. Further, the PR-A agonism efficacy in the experiment with hPR-A came to 100%.

One may read the ED50 as the dose that gives a 50% effect, or the effect in half of the subjects. For `CCC(=O)[C@@]1(C)CC[C@H]2[C@@H]3CCC4=CC(=O)CCC4=C3CC[C@@]21C` [R5020, promegestone, reference compound], the “Mammary gland, whole mount staining (rat) [equi-efficient dose]” value in the experiment on rat mammary epithelium (dose pair with 0.1 mg/kg R5020, independent test) came out at 0.1 mg/kg; in the experiment on rat mammary epithelium (dose pair with 0.3 mg/kg R5020, independent tests), 0.3 mg/kg. Besides, the “Maintenance of pregnancy (rat) [ED50]” value in experiment [1] worked out at 0.1 mg/kg. Besides, the ED50 in the experiment with female rats was found to be 0.06 mg/kg.
